Measured values as given in publication PMC11995724, “Antibiotic target discovery by integrated phenotypic and activity-based profiling of electrophilic fragments” (Cell chemical biology, 2025).

Test: in vitro
Settings: human, hek293t cells

SMILES | viability at 48 h, 25 µM
N#CC(=Cc1cccc(F)c1F)C(=O)NC(N)=O [8-H04, {2-cyano-2-[(2,3-difluorophenyl)methylidene]acetyl}urea] | 89.9%
CCCn1c(C)cc(C=C(C#N)C(=O)Nc2ccccc2)c1C [8-H05, 2-cyano-3-(2,5-dimethyl-1-propyl-1H-pyrrol-3-yl)-N-phenylprop-2-enamide] | 108%
N#CC(=Cc1c[nH]nc1-c1ccccc1F)C(=O)Nc1ccccc1F [8-H06, 2-cyano-N-(2-fluorophenyl)-3-[3-(2-fluorophenyl)-1H-pyrazol-4-yl]prop-2-enamide] | 90.8%
COc1cc(C=C(C#N)C(=O)Nc2ccc(F)cc2)cc(Cl)c1O [8-H07, 3-(3-chloro-4-hydroxy-5-methoxyphenyl)-2-cyano-N-(4-fluorophenyl)prop-2-enamide] | 87.7%
COc1ccccc1NC(=O)C(C#N)=Cc1ccco1 [8-H08, 2-cyano-3-(furan-2-yl)-N-(2-methoxyphenyl)prop-2-enamide] | 93%
Cc1ccccc1NC(=O)C(C#N)=Cc1cccc2ccccc12 [8-H09, 2-cyano-N-(2-methylphenyl)-3-(naphthalen-1-yl)prop-2-enamide] | 88.4%
N#CC(C(=O)Nc1ccccc1)=C1NCCCN1 [8-H10, 2-cyano-2-(1,3-diazinan-2-ylidene)-N-phenylacetamide] | 97.7%
Cc1ccc(NC(=O)C(C#N)=Cc2cccc(C(F)(F)F)c2)c(C)c1 [8-H11, 2-cyano-N-(2,4-dimethylphenyl)-3-[3-(trifluoromethyl)phenyl]prop-2-enamide] | 75%
Cc1ccc(C=C(C#N)C(=O)NCCc2ccccc2)o1 [8-H12, 2-cyano-3-(5-methylfuran-2-yl)-N-(2-phenylethyl)prop-2-enamide] | 118%
COc1ccc(C=C(C#N)C(=O)NC2CCCCC2)cc1O [8-H13, 2-cyano-N-cyclohexyl-3-(3-hydroxy-4-methoxyphenyl)prop-2-enamide] | 86.5%
CCCCNC(=O)C(C#N)=Cc1ccc(F)cc1F [8-H14, N-butyl-2-cyano-3-(2,4-difluorophenyl)prop-2-enamide] | 103%
CC(C)NC(=O)C(C#N)=Cc1cccs1 [8-H15, 2-cyano-N-(propan-2-yl)-3-(thiophen-2-yl)prop-2-enamide] | 117%
N#CC(=Cc1cn(-c2ccccc2)nc1-c1ccc(Cl)cc1)C(N)=O [8-H16, 3-[3-(4-chlorophenyl)-1-phenyl-1H-pyrazol-4-yl]-2-cyanoprop-2-enamide] | 125%
N#CC(=Cc1ccc(Cl)cc1Cl)C(N)=O [8-H17, 2-cyano-3-(2,4-dichlorophenyl)prop-2-enamide] | 93.6%
N#CC(=Cc1ccccc1OC(F)F)C(=O)NC1CCCCC1 [8-H18, 2-cyano-N-cyclohexyl-3-[2-(difluoromethoxy)phenyl]prop-2-enamide] | 20.8%
COc1ccc(C=C(C#N)C(=O)Nc2ccc3c(c2)OCCO3)cc1O [8-H19, 2-cyano-N-(2,3-dihydro-1,4-benzodioxin-6-yl)-3-(3-hydroxy-4-methoxyphenyl)prop-2-enamide] | 99.8%
CN1C=C(C(F)(F)F)C=CC1=C(C#N)C(=O)Nc1ccccc1F [8-H20, 2-cyano-N-(2-fluorophenyl)-2-[1-methyl-5-(trifluoromethyl)-1,2-dihydropyridin-2-ylidene]acetamide] | 90.1%
COc1cc(C=C(C#N)C(=O)NC2CCCCC2)cc(Cl)c1O [8-H21, 3-(3-chloro-4-hydroxy-5-methoxyphenyl)-2-cyano-N-cyclohexylprop-2-enamide] | 92.7%
N#CC(C(=O)Nc1ccc(Cl)cc1)=C(S)Nc1ccccc1 [8-H22, N-(4-chlorophenyl)-2-cyano-3-(phenylamino)-3-sulfanylprop-2-enamide] | 78.8%
COc1ccc(C=C(C#N)C(=O)Nc2cccc([N+](=O)[O-])c2)cc1 [8-I03, 2-cyano-3-(4-methoxyphenyl)-N-(3-nitrophenyl)prop-2-enamide] | 105%
COc1ccc(NC(=O)C(C#N)=Cc2c(C)n[nH]c2C)cc1 [8-I04, 2-cyano-3-(3,5-dimethyl-1H-pyrazol-4-yl)-N-(4-methoxyphenyl)prop-2-enamide] | 84.7%
COc1ccc(C=C(C#N)C(=O)Nc2ccc(C)c(C)c2)cc1 [8-I05, 2-cyano-N-(3,4-dimethylphenyl)-3-(4-methoxyphenyl)prop-2-enamide] | 87.4%
CC1CCCCC1NC(=O)C(C#N)=Cc1ccc(N2CCOCC2)cc1 (centres unmarked) [8-I06, 2-cyano-N-(2-methylcyclohexyl)-3-[4-(morpholin-4-yl)phenyl]prop-2-enamide] | 52.8%
Cc1cccc(C)c1NC(=O)C(C#N)=Cc1ccsc1 [8-I07, 2-cyano-N-(2,6-dimethylphenyl)-3-(thiophen-3-yl)prop-2-enamide] | 85.3%
CC(C)NC(=O)C(C#N)=Cc1cnn(-c2ccc(Cl)cc2)c1 [8-I08, 3-[1-(4-chlorophenyl)-1H-pyrazol-4-yl]-2-cyano-N-(propan-2-yl)prop-2-enamide] | 77.6%

SMILES | viability at 48 h, 25 µM
COc1ccc(C=C(C#N)C(=O)Nc2cccc(Cl)c2)cc1 [8-I09, N-(3-chlorophenyl)-2-cyano-3-(4-methoxyphenyl)prop-2-enamide] | 80%
N#CC(=Cc1cc(F)ccc1F)C(=O)Nc1ccc2c(c1)OCCO2 [8-I10, 2-cyano-3-(2,5-difluorophenyl)-N-(2,3-dihydro-1,4-benzodioxin-6-yl)prop-2-enamide] | 53.5%
CSc1ccc(C=C(C#N)C(=O)N2CCCC2)cc1 [8-I11, 3-[4-(methylsulfanyl)phenyl]-2-(pyrrolidine-1-carbonyl)prop-2-enenitrile] | 106%
N#CC(=Cc1cc(F)ccc1F)C(=O)NC1CCCC1 [8-I12, 2-cyano-N-cyclopentyl-3-(2,5-difluorophenyl)prop-2-enamide] | 16.8%
Cc1cc(C)c(NC(=O)C(C#N)=Cc2ccc(C(C)(C)C)cc2)c(C)c1 [8-I13, 3-(4-tert-butylphenyl)-2-cyano-N-(2,4,6-trimethylphenyl)prop-2-enamide] | 9.25%
N#CC(=Cc1cccc(O)c1)C(=O)Nc1ccc(N2CCOCC2)cc1 [8-I14, 2-cyano-3-(3-hydroxyphenyl)-N-[4-(morpholin-4-yl)phenyl]prop-2-enamide] | 82.5%
N#CC(=Cc1ccsc1)C(=O)NCc1ccc(Cl)cc1 [8-I15, N-[(4-chlorophenyl)methyl]-2-cyano-3-(thiophen-3-yl)prop-2-enamide] | 101%
Cc1cccc(NC(=O)C(C#N)=Cc2ccc(F)c(F)c2)c1 [8-I16, 2-cyano-3-(3,4-difluorophenyl)-N-(3-methylphenyl)prop-2-enamide] | 75.5%
N#CC(=Cc1ccc([N+](=O)[O-])o1)C(=O)NCc1ccco1 [8-I17, 2-cyano-N-[(furan-2-yl)methyl]-3-(5-nitrofuran-2-yl)prop-2-enamide] | 1.08%
N#CC(=Cc1ccc(F)cc1)C(=O)Nc1ccccc1C(F)(F)F [8-I18, 2-cyano-3-(4-fluorophenyl)-N-[2-(trifluoromethyl)phenyl]prop-2-enamide] | 81.7%
CC(C)NC(=O)C(C#N)=Cc1ccc(-c2ccc([N+](=O)[O-])cc2)o1 [8-I19, 2-cyano-3-[5-(4-nitrophenyl)furan-2-yl]-N-(propan-2-yl)prop-2-enamide] | 93%
N#CC(=Cc1ccco1)C(=O)Nc1cccc(Cn2cccn2)c1 [8-I20, 2-cyano-3-(furan-2-yl)-N-{3-[(1H-pyrazol-1-yl)methyl]phenyl}prop-2-enamide] | 82.1%
Cc1ccc(C=C(C#N)C(=O)NC(C)C)o1 [8-I21, 2-cyano-3-(5-methylfuran-2-yl)-N-(propan-2-yl)prop-2-enamide] | 95.7%
CCOc1ccc(C=C(C#N)C(=O)Nc2ccncc2)cc1 [8-I22, 2-cyano-3-(4-ethoxyphenyl)-N-(pyridin-4-yl)prop-2-enamide] | 99.3%
Cc1ccccc1NC(=O)C(C#N)=Cc1ccc2c(c1)OCCO2 [8-J03, 2-cyano-3-(2,3-dihydro-1,4-benzodioxin-6-yl)-N-(2-methylphenyl)prop-2-enamide] | 93.5%
C=CCNC(=O)C(C#N)=Cc1ccc(C(=O)O)cc1 [8-J04, 4-{2-cyano-2-[(prop-2-en-1-yl)carbamoyl]eth-1-en-1-yl}benzoic acid] | 87.1%
N#CC(=Cc1ccc(C#N)cc1)C(=O)Nc1cccc(Cl)c1Cl [8-J05, 2-cyano-3-(4-cyanophenyl)-N-(2,3-dichlorophenyl)prop-2-enamide] | 112%
N#CC(=Cc1cccc(Cl)c1Cl)C(=O)NCCc1ccccc1 [8-J06, 2-cyano-3-(2,3-dichlorophenyl)-N-(2-phenylethyl)prop-2-enamide] | 10.1%
Cc1cccc(C=C(C#N)C(=O)NC(C)C)c1 [8-J07, 2-cyano-3-(3-methylphenyl)-N-(propan-2-yl)prop-2-enamide] | 94.3%
CC(C)NC(=O)C(C#N)=Cc1ccc(Cl)c([N+](=O)[O-])c1 [8-J08, 3-(4-chloro-3-nitrophenyl)-2-cyano-N-(propan-2-yl)prop-2-enamide] | 0.544%
N#CC(=Cc1cccc2ccccc12)C(=O)NCc1ccc(Cl)cc1 [8-J09, N-[(4-chlorophenyl)methyl]-2-cyano-3-(naphthalen-1-yl)prop-2-enamide] | 66%
Cn1cc(C=C(C#N)C(=O)NCc2ccccc2)cn1 [8-J10, N-benzyl-2-cyano-3-(1-methyl-1H-pyrazol-4-yl)prop-2-enamide] | 111%
CC(NC(=O)C(C#N)=Cc1ccc(-c2ccccc2)cc1)c1ccccc1 (centres unmarked) [8-J11, 3-{[1,1'-biphenyl]-4-yl}-2-cyano-N-(1-phenylethyl)prop-2-enamide] | 26.5%
COc1ccc(C=C(C#N)C(=O)NCc2ccco2)cc1 [8-J12, 2-cyano-N-[(furan-2-yl)methyl]-3-(4-methoxyphenyl)prop-2-enamide] | 112%
N#CC(=Cc1cccc(Cl)c1)C(=O)Nc1ccccc1C(F)(F)F [8-J13, 3-(3-chlorophenyl)-2-cyano-N-[2-(trifluoromethyl)phenyl]prop-2-enamide] | 101%
